One assay has as its target JAK1 (Homo sapiens (Human), UniProt P23458). Briefly: Jak Biochemical HTRF Assay, JAK1. The settings on record: read-out: JAK1 IC50. The text has this: (§1) Jak Biochemical HTRF Assay Protocol
(§2) Subsequent reagent additions employed an Agilent Bravo.
A general note: Time-resolved FRET reads energy transfer from a long-lived donor to a nearby acceptor.

Another assay addresses JAK2 (Homo sapiens (Human), UniProt O60674). The assay is described as follows: Jak Biochemical HTRF Assay, JAK2.
Source text: as §1, §2

Setting [1] is: HTRF biochemical assay, GST-tagged catalytic domain, top concentration tested […].

Like-named read-outs stand apart in the source and are kept apart here.

Sequence of JAK1 (P23458 875-1153): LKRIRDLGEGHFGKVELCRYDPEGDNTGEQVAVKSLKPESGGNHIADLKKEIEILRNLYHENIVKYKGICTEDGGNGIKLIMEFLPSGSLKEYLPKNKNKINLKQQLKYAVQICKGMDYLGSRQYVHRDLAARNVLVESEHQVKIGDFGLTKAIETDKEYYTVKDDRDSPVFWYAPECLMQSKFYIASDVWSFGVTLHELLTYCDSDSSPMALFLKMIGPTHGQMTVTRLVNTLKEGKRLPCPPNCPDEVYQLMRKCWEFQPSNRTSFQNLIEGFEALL
Sequence of JAK2 (O60674 849-1124): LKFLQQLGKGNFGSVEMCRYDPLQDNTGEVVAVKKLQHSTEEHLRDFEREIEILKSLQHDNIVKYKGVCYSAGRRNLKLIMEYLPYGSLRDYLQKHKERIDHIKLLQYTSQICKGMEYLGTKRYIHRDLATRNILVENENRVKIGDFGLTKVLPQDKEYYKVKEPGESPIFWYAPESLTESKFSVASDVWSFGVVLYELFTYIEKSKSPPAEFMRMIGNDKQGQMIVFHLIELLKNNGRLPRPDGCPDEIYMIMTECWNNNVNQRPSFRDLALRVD

For orientation: IC50 means the concentration needed to halve the response being measured. Take `Cc1ccc(NC(=O)N2CC(CC#N)(n3cc(C(N)=O)c(Nc4ccccc4)n3)C2)cc1Cl` [Example 38-13, 1-{1-[(3-chloro-4-methylphenyl)carbamoyl]-3-(cyanomethyl)azetidin-3-yl}-3-(phenylamino)-1H-pyrazole-4-carboxamide]: the IC50 on JAK1 (setting [1]) is 21 nM; on JAK2 (setting [1]), 339 nM.

As to `Cc1ncccc1N1CCC(CC#N)(n2cc(C(N)=O)c(Nc3ccc(F)cc3)n2)CC1` [Example 3-29, 1-[4-(cyanomethyl)-1-(2-methylpyridin-3-yl)piperidin-4-yl]-3-[(4-fluorophenyl)amino]-1H-pyrazole-4-carboxamide], the IC50 on JAK1 (setting [1]) stood at 9 nM; against JAK2 (setting [1]), 209 nM.

`CCCc1ccc(CN2CCC(CC#N)(n3cc(C(N)=O)c(Nc4ccccc4)n3)CC2)cc1` [Example 21-22, 1-[4-(cyanomethyl)-1-(4-propylbenzyl)piperidin-4-yl]-3-(phenylamino)-1H-pyrazole-4-carboxamide]: the IC50 on JAK1 (setting [1]) worked out at 72 nM; on JAK2 (setting [1]), 888 nM.

For `N#CCC1(n2cc(C(N)=O)c(Nc3ccnc(F)c3)n2)CCN(C(=O)CC2CC2)CC1` [Example 34-45, 1-[4-(cyanomethyl)-1-(cyclopropylacetyl)piperidin-4-yl]-3-[(2-fluoropyridin-4-yl)amino]-1H-pyrazole-4-carboxamide], the IC50 on JAK1 (setting [1]) came out at 1 nM; against JAK2 (setting [1]), 46 nM.

As to `N#CCC1(n2cc(C(N)=O)c(Nc3ccc(F)cc3)n2)CCN(C(=O)OCC2CCC2)CC1` [Example 30-5, cyclobutylmethyl 4-(4-carbamoyl-3-(4-fluorophenylamino)-1H-pyrazol-1-yl)-4-(cyanomethyl)piperidine-1-carboxylate], the figures for the IC50 on JAK1 (setting [1]) and on JAK2 (setting [1]) were 4 nM and 120 nM, respectively.

For `N#CCC1(n2cc(C(N)=O)c(Nc3ccnc(F)c3)n2)CCC(NC2CCCCC2)CC1` (stereo not drawn) [Example 40-23, Cis or trans 1-[1-(cyanomethyl)-4-(cyclohexylamino)cyclohexyl]-3-[(2-fluoropyridin-4-yl)amino]-1H-pyrazole-4-carboxamide], the IC50 came to 2 nM on JAK1 (setting [1]) and 237 nM at JAK2 (setting [1]).

As to `N#CCC1(n2cc(C(N)=O)c(Nc3ccc(F)cc3)n2)CCN(C(=O)OC(CF)CF)CC1` [Example 30-9, 1,3-difluoropropan-2-yl 4-(4-carbamoyl-3-(4-fluorophenylamino)-1H-pyrazol-1-yl)-4-(cyanomethyl)piperidine-1-carboxylate], the IC50 came to 0.3 nM at JAK1 (setting [1]) and 5 nM at JAK2 (setting [1]).

In the case of `N#CCC1(n2cc(C(N)=O)c(Nc3ccc(F)cc3)n2)CCC(N2CCC(O)CC2)CC1` (stereo not drawn) [Example 40-41, Cis or trans 1-[1-(cyanomethyl)-4-(4-hydroxypiperidin-1-yl)cyclohexyl]-3-[(4-fluorophenyl)amino]-1H-pyrazole-4-carboxamide], the figures for the IC50 on JAK1 (setting [1]) and against JAK2 (setting [1]) were 584 nM and more than 1500 nM, respectively.

As to `N#CCC1(n2cc(C(N)=O)c(Nc3ccccc3)n2)CCN(S(=O)(=O)C2CC2)CC1` [Example 37-15, 1-[4-(cyanomethyl)-1-(cyclopropylsulfonyl)piperidin-4-yl]-3-(phenylamino)-1H-pyrazole-4-carboxamide], the IC50 came to 0.4 nM on JAK1 (setting [1]) and 3 nM against JAK2 (setting [1]).

For `COc1ccccc1N1CCC(CC#N)(n2cc(C(N)=O)c(Nc3ccc(F)cc3)n2)CC1` [Example 3-41, 1-[4-(cyanomethyl)-1-(2-methoxyphenyl)piperidin-4-yl]-3-[(4-fluorophenyl)amino]-1H-pyrazole-4-carboxamide], the IC50 was 213 nM on JAK1 (setting [1]) and more than 1500 nM against JAK2 (setting [1]).

On to `CCC(=O)N1CCC(CC#N)(n2cc(C(N)=O)c(Nc3ccccc3)n2)CC1` [Example 33-1, 1-[4-(Cyanomethyl)-1-propanoylpiperidin-4-yl]-3-(phenylamino)-1H-pyrazole-4-carboxamide], for which the IC50 on JAK1 (setting [1]) amounted to 2 nM; against JAK2 (setting [1]), 26 nM.

Consider `N#CCC1(n2cc(C(N)=O)c(Nc3ccc(F)cc3)n2)CCN(C(=O)OC2CCC2)CC1` [Example 30-4, cyclobutyl 4-(4-carbamoyl-3-(4-fluorophenylamino)-1H-pyrazol-1-yl)-4-(cyanomethyl)piperidine-1-carboxylate], for which the IC50 came out at 0.9 nM on JAK1 (setting [1]) and 33 nM on JAK2 (setting [1]).

On to `N#CCC1(n2cc(C(N)=O)c(Nc3ccc(F)cc3)n2)CCN(Cc2ccc3[nH]ccc3c2)CC1` [Example 22-55, 1-[4-(cyanomethyl)-1-(1H-indol-5-ylmethyl)piperidin-4-yl]-3-[(4-fluorophenyl)amino]-1H-pyrazole-4-carboxamide], for which the IC50 on JAK1 (setting [1]) turned out to be 4 nM; on JAK2 (setting [1]) it was 53 nM.

Take `CC(C)COC(=O)N1CC(CC#N)(n2cc(C(N)=O)c(Nc3ccccc3)n2)C1` [Example 30-51, 2-methylpropyl 3-[4-carbamoyl-3-(phenylamino)-1H-pyrazol-1-yl]-3-(cyanomethyl)azetidine-1-carboxylate]: the IC50 on JAK1 (setting [1]) was 14 nM; on JAK2 (setting [1]) it was 298 nM.

Take `N#CCC1(n2cc(C(N)=O)c(Nc3ccnc(F)c3)n2)CCC(NCc2cccc(Cl)c2)CC1` (stereo not drawn) [Example 41-20, Cis or trans 1-{4-[(3-chlorobenzyl)amino]-1-(cyanomethyl)cyclohexyl}-3-[(2-fluoropyridin-4-yl)amino]-1H-pyrazole-4-carboxamide]: the IC50 stood at 0.6 nM on JAK1 (setting [1]) and 17 nM against JAK2 (setting [1]).

`N#CCC1(n2cc(C(N)=O)c(Nc3ccnc(F)c3)n2)CCN(Cc2ccc(F)cn2)CC1` [Example 22-36, 1-{4-(cyanomethyl)-1-[(5-fluoropyridin-2-yl)methyl]piperidin-4-yl}-3-[(2-fluoropyridin-4-yl)amino]-1H-pyrazole-4-carboxamide]: the IC50 at JAK1 (setting [1]) amounted to 2 nM; against JAK2 (setting [1]), 97 nM.

For the compound `CC(C)(C)OC(=O)N1CCC(CC#N)(n2cc(C(N)=O)c(Nc3cccc(-c4ccc(O)cc4)c3)n2)CC1` [Example 15-5, tert-butyl 4-{4-carbamoyl-3-[(4′-hydroxybiphenyl-3-yl)amino]-1H-pyrazol-1-yl}-4-(cyanomethyl)piperidine-1-carboxylate], the IC50 on JAK1 (setting [1]) turned out to be 14 nM; at JAK2 (setting [1]), 293 nM.

Consider `N#CCC1(n2cc(C(N)=O)c(Nc3ccnc(F)c3)n2)CCN(Cc2cccc(F)n2)CC1` [Example 22-32, 1-{4-(cyanomethyl)-1-[(6-fluoropyridin-2-yl)methyl]piperidin-4-yl}-3-[(2-fluoropyridin-4-yl)amino]-1H-pyrazole-4-carboxamide], for which the IC50 at JAK1 (setting [1]) turned out to be 2 nM; at JAK2 (setting [1]), 83 nM.

Take `N#CCC1(n2cc(C(N)=O)c(Nc3ccc(F)cc3)n2)CCN(c2cc(F)ccn2)CC1` [Example 3-44, 1-[4-(cyanomethyl)-1-(4-fluoropyridin-2-yl)piperidin-4-yl]-3-[(4-fluorophenyl)amino]-1H-pyrazole-4-carboxamide]: the figures for the IC50 at JAK1 (setting [1]) and against JAK2 (setting [1]) were 0.2 nM and 6 nM, respectively.

`CCC(=O)N1CC(CC#N)(n2cc(C(N)=O)c(Nc3ccccc3)n2)C1` [Example 34-36, 1-[3-(cyanomethyl)-1-propanoylazetidin-3-yl]-3-(phenylamino)-1H-pyrazole-4-carboxamide]: the IC50 on JAK1 (setting [1]) amounted to 42 nM; at JAK2 (setting [1]) it was 298 nM.

Take `N#CCC1(n2cc(C(N)=O)c(Nc3ccnc(F)c3)n2)CCN(Cc2ccc(O)cc2)CC1` [Example 22-60, 1-[4-(cyanomethyl)-1-(4-hydroxybenzyl)piperidin-4-yl]-3-[(2-fluoropyridin-4-yl)amino]-1H-pyrazole-4-carboxamide]: the IC50 on JAK1 (setting [1]) worked out at 0.1 nM; on JAK2 (setting [1]), 6 nM.

In the case of `N#CCC1(n2cc(C(N)=O)c(Nc3ccnc(F)c3)n2)CCN(C(=O)Cn2ccnc2)CC1` [Example 34-52, 1-[4-(cyanomethyl)-1-(1H-imidazol-1-ylacetyl)piperidin-4-yl]-3-[(2-fluoropyridin-4-yl)amino]-1H-pyrazole-4-carboxamide], the IC50 at JAK1 (setting [1]) was determined as 4 nM; at JAK2 (setting [1]) it was 154 nM.

In the case of `N#CCC1(n2cc(C(N)=O)c(Nc3ccnc(F)c3)n2)CCN(Cc2cc3ccccc3[nH]2)CC1` [Example 22-39, 1-[4-(cyanomethyl)-1-(1H-indol-2-ylmethyl)piperidin-4-yl]-3-[(2-fluoropyridin-4-yl)amino]-1H-pyrazole-4-carboxamide], the IC50 at JAK1 (setting [1]) came to 0.2 nM; on JAK2 (setting [1]), 14 nM.

`N#CCC1(n2cc(C(N)=O)c(Nc3cncc(Cl)c3)n2)CCN(C(=O)OCC(F)(F)F)CC1` [Example 10-9, 2,2,2-trifluoroethyl 4-{4-carbamoyl-3-[(5-chloropyridin-3-yl)amino]-1H-pyrazol-1-yl}-4-(cyanomethyl)piperidine-1-carboxylate]: the values for the IC50 on JAK1 (setting [1]) and against JAK2 (setting [1]) were 0.4 nM and 15 nM, respectively.

Take `CCOc1ccccc1CN1CCC(CC#N)(n2cc(C(N)=O)c(Nc3ccccc3)n2)CC1` [Example 21-16, 1-[4-(cyanomethyl)-1-(2-ethoxybenzyl)piperidin-4-yl]-3-(phenylamino)-1H-pyrazole-4-carboxamide]: the figures for the half-inhibitory concentration (IC50) at JAK1 (setting [1]) and against JAK2 (setting [1]) were 69 nM and 842 nM, respectively.

With `Cn1c(C(=O)N2CCC(CC#N)(n3cc(C(N)=O)c(Nc4ccccc4)n3)CC2)cc2ccccc21` [Example 34-26, 1-{4-(cyanomethyl)-1-[(1-methyl-1H-indol-2-yl)carbonyl]piperidin-4-yl}-3-(phenylamino)-1H-pyrazole-4-carboxamide], the IC50 on JAK1 (setting [1]) amounted to 10 nM; against JAK2 (setting [1]) it was 238 nM.

On to `N#CCC1(n2cc(C(N)=O)c(Nc3ccc(S(=O)(=O)C(F)F)cc3)n2)CCC(Nc2cccc(O)c2)CC1` (stereo not drawn) [Example 40-44, Cis or trans 1-{1-(cyanomethyl)-4-[(3-hydroxyphenyl)amino]cyclohexyl}-3-({4-[(difluoromethyl)sulfonyl]phenyl}amino)-1H-pyrazole-4-carboxamide], for which the IC50 at JAK1 was determined as 0.1 nM; against JAK2, 0.8 nM.

In the case of `N#CCC1(n2cc(C(N)=O)c(Nc3ccc(F)cc3)n2)CCN(Cc2cccc(F)n2)CC1` [Example 22-46, 1-{4-(cyanomethyl)-1-[(6-fluoropyridin-2-yl)methyl]piperidin-4-yl}-3-[(4-fluorophenyl)amino]-1H-pyrazole-4-carboxamide], the IC50 on JAK1 (setting [1]) is 3 nM; on JAK2 (setting [1]), 95 nM.

The values are drawn from patent US9328099B2, “Cyanomethylpyrazole carboxamides as janus kinase inhibitors” (Merck Sharp & Dohme Corp., priority 2011, dated 2016).
